Experimental data reported in paper PMC7395068, “The evolution of strategies to minimise the risk of human drug-induced liver injury (DILI) in drug discovery and development” (Archives of Toxicology, 2020).
Read-outs that look alike come from different tables or passages of the source.

Experiments:
PHH = details: cited from earlier work
[1] = cited from earlier work
HepG2 cells = details: cited from earlier work
[2] = test system: isolated mouse liver mitochondria; details: In vitro Assay; ref Porceddu 2012; cited from earlier work
hLiMTs [3] = test: Combined HCI (HCS) and cellular ATP 3D assay in hLiMTs; details: for AC50: Homo sapiens
hLiMTs [4] = details: cited from earlier work
PHH spheroids = details: cited from earlier work
[5] = read-out: Human plasma Cmax; total plasma Cmax.tot, median of 9 literature references; cited from earlier work
HepaRG spheroids = test: Combined HCI (HCS) and cellular ATP 3D assay in HepaRG spheroids; details: for AC50: Homo sapiens
rBsep = details: In vitro Assay; ref Dawson 2012; cited from earlier work
[6] = cited from earlier work; remark: listed apart in the source
[7] = Plasma free fraction (fu) and unbound Cmax (Cmax,u); assay type: in vitro ADME, human; details: unbound plasma Cmax
[8] = test system: THLE-Null and THLE-3A4 cells; details: In vitro Assay; ref Gustafsson 2014; cited from earlier work
[9] = plasma free fraction; cited from earlier work
[10] = test system: HepG2 C3A spheroid, BSEP, Glu/Gal in HepG2 cells, bioactivation; details: cited from earlier work
[11] = In vitro Assay, ref Proctor 2017
[12] = Microtissue model structural based (HCI), combined HCS and ATP, MEC < 25 × Cmax.tot cut-off

- hLiMTs <25x Avg Cmax ATP (hLiMTs [3]; hLiMTs, ATP endpoint, cut-off <25x Avg Cmax): +ve
- hLiMTs <100x Avg Cmaxu ATP (hLiMTs [3]; hLiMTs, ATP endpoint, cut-off <100x Avg Cmaxu): +ve (<100x Avg Cmaxu)
- hLiMTs <25x Avg Cmax HCS (hLiMTs [3]; hLiMTs, HCS endpoints, cut-off <25x Avg Cmax): +ve
- hLiMTs <100x Avg Cmaxu HCS (hLiMTs [3]; hLiMTs, HCS endpoints, cut-off <100x Avg Cmaxu): -ve
- hLiMTs <25x Avg Cmax All (hLiMTs [3]; hLiMTs, all endpoints (ATP and HCS), cut-off <25x Avg Cmax): +ve
- hLiMTs Cmax max All (hLiMTs [3]; hLiMTs, all endpoints, Cmax max used): +ve
- hLiMTs Cmax min All (hLiMTs [3]; hLiMTs, all endpoints, Cmax min used): +ve
- hLiMTs <10 uM All (hLiMTs [3]; hLiMTs, all endpoints, cut-off <10 uM): +ve (<10 uM)
- hLiMTs <100x Avg Cmaxu All (hLiMTs [3]; hLiMTs, all endpoints, cut-off <100x Avg Cmaxu): +ve (<100x Avg Cmaxu)
- HepaRG <25x Avg Cmax ATP (HepaRG spheroids; HepaRG, ATP endpoint, cut-off <25x Avg Cmax): +ve
- HepaRG <100x Avg Cmaxu ATP (HepaRG spheroids; HepaRG, ATP endpoint, cut-off <100x Avg Cmaxu): -ve
- HepaRG <25x Avg Cmax HCS (HepaRG spheroids; HepaRG, HCS endpoints, cut-off <25x Avg Cmax): +ve
- HepaRG <100x Avg Cmaxu HCS (HepaRG spheroids; HepaRG, HCS endpoints, cut-off <100x Avg Cmaxu): -ve
- HepaRG <25x Avg Cmax All (HepaRG spheroids; HepaRG, all endpoints (ATP and HCS), cut-off <25x Avg Cmax): +ve
- HepaRG Cmax max All (HepaRG spheroids; HepaRG, all endpoints, Cmax max used): +ve
- HepaRG Cmax min All (HepaRG spheroids; HepaRG, all endpoints, Cmax min used): +ve
- HepaRG <10 uM All (HepaRG spheroids; HepaRG, all endpoints, cut-off <10 uM): -ve
- HepaRG <100x Avg Cmaxu All (HepaRG spheroids; HepaRG, all endpoints, cut-off <100x Avg Cmaxu): -ve
- Human plasma Cmax,u [7]: 0.161 µM
SMILES: Clc1ccccc1CN1CCc2sccc2C1 [ticlopidine]
- PHH/100uM, Proctor (2017) (PHH; 2D PHH, ATP, IC50 threshold 100 µM, ref Proctor et al. 2017): -VE
- PHH ATP <100uM (PHH; [11]): -VE
- DILI severity category (Chen et al. [2016]) ([1]; LTKB DILIrank category, ref Chen et al. 2016): Most
- DILI severity category ([1]; human DILI severity, ref Chen et al.): Most
- DILI +VE (5-8), DILI -VE (-4) ([1]; ref Chen 2016): +VE
- DILI severity category ([1]; ref Chen 2016): vMost-DILI-Concern
- Structural based (HCI) (HepG2 cells; In vitro Assay, ref Tolosa 2012): +VE
- DILI in vitro assay prediction, Tolosa (2012) (HepG2 cells; Structural based (HCI), HepG2, ref Tolosa et al. 2012): +VE
- in vitro data EC2<=1x Cmax [2]: +VE
- in vitro data EC20<=2uM [2]: +VE
- AC50 (hLiMTs [3]; read-out: ATP endpoint AC50): 10.7 µM
- AC50 (hLiMTs [3]; read-out: HCS endpoint AC50): 115 µM
- DILI prediction hLiMTs (HCS-MEC) (hLiMTs [3]; [12]): +VE (MEC < 25 × Cmax.tot cut-off)
- hLiMTs ATP <100uM (hLiMTs [4]; [11]): +VE (IC50 threshold of 100 µM)
- hLiMTs/100uM, Proctor (2017) (hLiMTs [4]; hLiMTs, ATP, IC50 threshold 100 µM, ref Proctor et al. 2017): -VE
- hLiMTs ATP <20 x Cmax (PHH spheroids; In vitro Assay, ref Vorrink 2018): +VE (IC20 < 20 × Cmax.tot cut-off)
- DILI in vitro assay prediction, Vorrink (2018) (PHH spheroids; PHH spheroids, ATP, 14 days, IC20 < 20 × Cmax.tot, ref Vorrink et al. 2018): +VE (IC20 < 20 × Cmax.tot cut-off)
- Cmax [5]: 8.07 µM
- AC50 (HepaRG spheroids; HepaRG, read-out: ATP endpoint AC50): 56 µM
- AC50 (HepaRG spheroids; HepaRG, read-out: HCS endpoint AC50): 60.8 µM
- DILI prediction HepaRG spheroids (HCS-MEC) (HepaRG spheroids; [12]): +VE (MEC < 25 × Cmax.tot cut-off)
- Inhibition of rBsep cutoff<1& cmax u>.2 (rBsep): +VE
- Inhibition of rBsep cutoff<3 (rBsep): +VE
- Assigned DILI category ([6]; Chen et al. 2016 or literature alignment, ref Chen et al. 2016): 3
- In vivo DILI ([6]; […]): +VE
- In vivo DILI ([6]; ref Dawson 2012): +VE
- In vivo DILI ([6]; ref Garside 2014): +VE
- In vivo DILI ([6]; ref Gustafsson 2014): +VE
- In vivo DILI ([6]; ref Porceddu 2012): +VE
- In vivo DILI ([6]; ref Proctor 2017): +VE
- In vivo DILI ([6]; ref Tolosa 2012): +VE
- In vivo DILI ([6]; ref Vorrink 2018): +VE
- In vivo DILI ([6]; ref Williams 2019): +VE
- In vivo DILI ([6]; ref Xu 2008): +VE
- THLE-Null [8]: +VE
- fu [9]: 0.020
- Bayesian Machine Learning DILI prediction, Williams (2019) ([10]; Bayesian modeling, ref Williams et al. 2019): +VE
- Bayesian Machine Learning ([10]; In vitro Assay, ref Williams 2019): +VE
